Assay [1] has as its target T1, Insulin-degrading enzyme (Homo sapiens, UniProt P14735).
T1 sequence (P14735 whole entry): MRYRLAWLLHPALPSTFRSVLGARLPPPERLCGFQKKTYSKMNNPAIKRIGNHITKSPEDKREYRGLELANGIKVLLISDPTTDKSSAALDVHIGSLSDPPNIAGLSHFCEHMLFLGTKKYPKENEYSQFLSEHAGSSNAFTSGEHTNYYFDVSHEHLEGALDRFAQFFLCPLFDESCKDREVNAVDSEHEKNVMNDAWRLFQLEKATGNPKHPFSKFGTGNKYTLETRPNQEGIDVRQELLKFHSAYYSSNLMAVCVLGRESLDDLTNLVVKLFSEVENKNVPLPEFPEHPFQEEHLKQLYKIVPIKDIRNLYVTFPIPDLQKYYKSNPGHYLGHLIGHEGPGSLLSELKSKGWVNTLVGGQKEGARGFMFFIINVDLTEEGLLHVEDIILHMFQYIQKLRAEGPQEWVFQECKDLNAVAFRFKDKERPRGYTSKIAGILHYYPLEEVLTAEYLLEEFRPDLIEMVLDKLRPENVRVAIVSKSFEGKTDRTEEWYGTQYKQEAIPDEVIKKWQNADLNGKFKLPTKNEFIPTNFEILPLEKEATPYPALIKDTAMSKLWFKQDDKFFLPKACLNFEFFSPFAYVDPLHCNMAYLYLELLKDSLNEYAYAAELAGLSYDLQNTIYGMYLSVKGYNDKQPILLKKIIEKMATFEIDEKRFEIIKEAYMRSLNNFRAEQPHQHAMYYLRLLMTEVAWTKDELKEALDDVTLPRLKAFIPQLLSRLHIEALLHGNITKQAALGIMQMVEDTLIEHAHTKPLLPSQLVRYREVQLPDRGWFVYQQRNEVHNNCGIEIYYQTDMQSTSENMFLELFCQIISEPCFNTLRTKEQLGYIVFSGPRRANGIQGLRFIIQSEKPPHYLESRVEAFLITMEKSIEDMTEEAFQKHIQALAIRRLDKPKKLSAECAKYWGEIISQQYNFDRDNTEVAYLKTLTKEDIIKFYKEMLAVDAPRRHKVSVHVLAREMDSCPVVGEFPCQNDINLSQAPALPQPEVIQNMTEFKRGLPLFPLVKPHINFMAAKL
As to the kind of experiment: activators of endogenous IDE in HEK cells, dose response, cell-based, fluorescence polarization (AID 588439). It counts as functional.

The target of assay [2] is T1, Insulin-degrading enzyme. In words: activators of recombinant IDE enzyme, dose response, counter-screen for IDE activator project, biochemical, fluorescence polarization (AID 588681).
Assay [3] relates to HEK293. In words: optical interference in Abeta FP readout, dose response, artefact control for IDE activator project, biochemical, fluorescence polarization (AID 588442). It counts as functional, cell-based. The settings on record: Homo sapiens.
Assay [4] has as its system HEK293. As to the kind of experiment: HEK cell cytotoxicity by LDH release, dose response, cytotoxicity control for IDE activator project, fluorescence, HEK cells (AID 588440).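 Also: cytotoxicity by LDH release measuring loss of membrane integrity.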 The settings on record: Homo sapiens. It counts as functional, cell-based. On the technique in general: LDH in the medium is a marker of cell lysis.
Assay [5] deals with Casein kinase II subunit alpha (Homo sapiens, UniProt P68400). It counts as functional.
Assay [6] deals with 5'-AMP-activated protein kinase catalytic subunit alpha-1 (Homo sapiens, UniProt Q13131). Format: functional.
Assay [7] deals with Serine/threonine-protein kinase Chk2 (Homo sapiens, UniProt O96017). Format: functional.
Assay [8] deals with RAC-gamma serine/threonine-protein kinase (Homo sapiens, UniProt Q9Y243). Format: functional.
Assay [9] addresses Protein kinase C gamma type (Homo sapiens, UniProt P05129). It counts as functional.
Assay [10] has as its target Serine/threonine-protein kinase pim-1 (Homo sapiens, UniProt P11309). It counts as functional.
Assay [11] has as its target Protein kinase C delta type (Homo sapiens, UniProt Q05655). It counts as functional.
In assay [12] the target is Protein kinase C zeta type (Homo sapiens, UniProt Q05513). It counts as functional.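 Also: measured as one member of a broad kinase profiling panel.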
Assay [13] deals with Cyclin-dependent kinase 2 (Homo sapiens, UniProt P24941). Format: functional.
The target in assay [14] is Ephrin type-A receptor 2 (Homo sapiens, UniProt P29317). Format: functional.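 Also: EPHA2 tested as one member of a kinome-wide kinase panel.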
Assay [15] addresses MAP kinase-activated protein kinase 2 (Homo sapiens, UniProt P49137). Format: functional.
Assay [16] has as its target Cyclin-dependent kinase 1 (Homo sapiens, UniProt P06493). Format: functional.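 Also: Kinome-wide panel profiling, with the target listed as panel member CDC2.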
Assay [17] concerns the target Serine/threonine-protein kinase MRCK alpha (Homo sapiens, UniProt Q5VT25). Format: functional.
In assay [18] the target is Serine/threonine-protein kinase PLK1 (Homo sapiens, UniProt P53350). It counts as functional.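 Also: PLK1 measured as one member of a kinome-wide profiling panel.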
For assay [19], the target named is Serine/threonine-protein kinase Chk1 (Homo sapiens, UniProt O14757). It counts as functional.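 Also: measured as one member of a kinome-wide kinase profiling panel.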
For assay [20], the target named is Serine/threonine-protein kinase PLK3 (Homo sapiens, UniProt Q9H4B4). It counts as functional.
The target of assay [21] is RAC-alpha serine/threonine-protein kinase (Homo sapiens, UniProt P31749). It counts as functional.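 Also: AKT1 affinity measured as one member of a kinome-wide kinase profiling panel.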

SMILES strings stand for the structures. Activity calls are given as the source filed them.

Sequence of Serine/threonine-protein kinase pim-1 (P11309 whole entry): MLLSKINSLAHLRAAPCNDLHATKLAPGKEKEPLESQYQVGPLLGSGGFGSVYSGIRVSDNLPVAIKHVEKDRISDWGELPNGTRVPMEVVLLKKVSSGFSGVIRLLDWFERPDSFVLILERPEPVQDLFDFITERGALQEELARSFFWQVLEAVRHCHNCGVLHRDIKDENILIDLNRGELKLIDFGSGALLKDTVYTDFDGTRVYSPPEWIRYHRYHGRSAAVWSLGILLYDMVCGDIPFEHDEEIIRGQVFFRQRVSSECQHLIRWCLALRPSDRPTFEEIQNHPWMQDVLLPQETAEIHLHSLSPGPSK
Sequence of Protein kinase C zeta type (Q05513 whole entry): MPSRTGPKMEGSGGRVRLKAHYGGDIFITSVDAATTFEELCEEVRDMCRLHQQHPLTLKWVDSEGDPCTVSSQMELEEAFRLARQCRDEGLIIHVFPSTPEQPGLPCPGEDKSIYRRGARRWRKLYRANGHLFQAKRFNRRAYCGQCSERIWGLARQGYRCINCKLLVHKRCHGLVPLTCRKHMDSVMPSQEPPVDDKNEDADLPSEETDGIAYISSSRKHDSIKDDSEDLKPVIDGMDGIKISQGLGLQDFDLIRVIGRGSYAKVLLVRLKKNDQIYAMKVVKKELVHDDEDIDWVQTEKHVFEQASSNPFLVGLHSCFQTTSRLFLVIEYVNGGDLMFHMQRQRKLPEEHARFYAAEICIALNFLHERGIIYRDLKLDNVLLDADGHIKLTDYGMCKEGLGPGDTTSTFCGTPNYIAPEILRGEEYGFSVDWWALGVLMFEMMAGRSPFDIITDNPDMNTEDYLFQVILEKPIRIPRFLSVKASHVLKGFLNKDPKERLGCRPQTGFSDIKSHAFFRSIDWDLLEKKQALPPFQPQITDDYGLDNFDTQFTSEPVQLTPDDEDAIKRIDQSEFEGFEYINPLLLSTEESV
Sequence of Ephrin type-A receptor 2 (P29317 whole entry): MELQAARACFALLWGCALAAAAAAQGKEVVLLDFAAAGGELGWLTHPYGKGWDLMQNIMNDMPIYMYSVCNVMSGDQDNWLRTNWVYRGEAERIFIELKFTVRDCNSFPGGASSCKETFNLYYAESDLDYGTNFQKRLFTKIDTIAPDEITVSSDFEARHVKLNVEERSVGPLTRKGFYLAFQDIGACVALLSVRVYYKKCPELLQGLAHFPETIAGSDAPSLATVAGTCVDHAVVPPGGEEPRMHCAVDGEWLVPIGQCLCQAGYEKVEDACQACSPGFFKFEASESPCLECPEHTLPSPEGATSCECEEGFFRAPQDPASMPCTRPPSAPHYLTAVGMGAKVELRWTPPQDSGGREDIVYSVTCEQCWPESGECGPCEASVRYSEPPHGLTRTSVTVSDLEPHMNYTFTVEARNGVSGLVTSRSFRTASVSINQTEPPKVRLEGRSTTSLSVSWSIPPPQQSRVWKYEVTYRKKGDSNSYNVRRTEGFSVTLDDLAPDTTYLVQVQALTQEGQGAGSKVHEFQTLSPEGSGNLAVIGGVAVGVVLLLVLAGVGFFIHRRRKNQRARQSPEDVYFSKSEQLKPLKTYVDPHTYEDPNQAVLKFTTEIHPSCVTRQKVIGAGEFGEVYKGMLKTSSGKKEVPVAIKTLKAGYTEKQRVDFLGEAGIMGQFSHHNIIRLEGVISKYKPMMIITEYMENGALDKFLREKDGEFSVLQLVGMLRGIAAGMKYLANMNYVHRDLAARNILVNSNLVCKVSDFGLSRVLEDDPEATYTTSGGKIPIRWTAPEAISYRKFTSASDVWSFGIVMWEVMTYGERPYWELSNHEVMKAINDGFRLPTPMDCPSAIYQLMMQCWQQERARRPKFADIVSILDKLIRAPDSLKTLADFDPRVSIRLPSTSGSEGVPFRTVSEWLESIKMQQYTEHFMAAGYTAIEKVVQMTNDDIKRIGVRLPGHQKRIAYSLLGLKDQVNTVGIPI
Sequence of RAC-gamma serine/threonine-protein kinase (Q9Y243 whole entry): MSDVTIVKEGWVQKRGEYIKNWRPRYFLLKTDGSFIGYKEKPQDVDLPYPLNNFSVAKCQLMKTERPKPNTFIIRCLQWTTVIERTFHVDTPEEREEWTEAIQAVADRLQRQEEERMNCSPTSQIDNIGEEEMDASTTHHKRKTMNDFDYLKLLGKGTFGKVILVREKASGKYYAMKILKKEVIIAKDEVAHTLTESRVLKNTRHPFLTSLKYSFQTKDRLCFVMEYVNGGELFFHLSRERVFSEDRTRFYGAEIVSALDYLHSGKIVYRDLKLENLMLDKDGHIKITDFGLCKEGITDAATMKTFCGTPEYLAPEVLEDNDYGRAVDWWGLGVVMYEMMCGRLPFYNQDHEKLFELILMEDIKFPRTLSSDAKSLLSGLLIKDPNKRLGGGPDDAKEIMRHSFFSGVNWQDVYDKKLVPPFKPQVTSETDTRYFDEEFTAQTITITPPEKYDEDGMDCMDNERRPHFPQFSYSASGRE
Sequence of 5'-AMP-activated protein kinase catalytic subunit alpha-1 (Q13131 whole entry): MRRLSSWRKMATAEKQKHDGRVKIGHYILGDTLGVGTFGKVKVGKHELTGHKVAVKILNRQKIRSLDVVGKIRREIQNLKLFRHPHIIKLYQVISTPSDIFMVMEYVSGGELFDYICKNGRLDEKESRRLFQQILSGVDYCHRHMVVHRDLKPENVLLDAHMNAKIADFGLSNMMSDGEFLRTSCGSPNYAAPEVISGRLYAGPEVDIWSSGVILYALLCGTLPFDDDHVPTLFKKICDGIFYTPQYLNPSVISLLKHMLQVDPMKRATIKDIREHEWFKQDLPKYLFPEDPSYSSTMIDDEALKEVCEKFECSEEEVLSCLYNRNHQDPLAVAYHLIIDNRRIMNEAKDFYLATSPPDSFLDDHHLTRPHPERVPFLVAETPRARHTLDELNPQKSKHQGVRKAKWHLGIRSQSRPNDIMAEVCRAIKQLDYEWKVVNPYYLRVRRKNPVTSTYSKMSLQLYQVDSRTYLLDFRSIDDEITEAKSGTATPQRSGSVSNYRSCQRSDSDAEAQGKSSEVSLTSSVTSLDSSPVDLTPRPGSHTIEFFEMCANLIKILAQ
Sequence of Serine/threonine-protein kinase PLK3 (Q9H4B4 whole entry): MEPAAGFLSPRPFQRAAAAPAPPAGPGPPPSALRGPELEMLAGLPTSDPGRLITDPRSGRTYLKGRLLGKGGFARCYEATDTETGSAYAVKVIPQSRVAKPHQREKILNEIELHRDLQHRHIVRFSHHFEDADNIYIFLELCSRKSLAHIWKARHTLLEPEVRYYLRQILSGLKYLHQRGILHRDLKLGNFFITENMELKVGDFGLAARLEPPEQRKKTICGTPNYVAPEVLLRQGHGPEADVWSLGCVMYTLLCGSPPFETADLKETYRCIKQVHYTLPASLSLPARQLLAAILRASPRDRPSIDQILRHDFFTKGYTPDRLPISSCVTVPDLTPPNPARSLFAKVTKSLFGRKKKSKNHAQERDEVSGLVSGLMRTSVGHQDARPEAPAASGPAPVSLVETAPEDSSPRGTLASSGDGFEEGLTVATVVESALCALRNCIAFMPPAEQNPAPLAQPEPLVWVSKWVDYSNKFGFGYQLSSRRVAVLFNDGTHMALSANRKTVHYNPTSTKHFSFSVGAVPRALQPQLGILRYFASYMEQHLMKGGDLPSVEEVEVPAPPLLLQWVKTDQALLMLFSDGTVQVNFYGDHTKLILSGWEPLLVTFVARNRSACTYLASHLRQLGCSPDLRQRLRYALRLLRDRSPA
Sequence of Serine/threonine-protein kinase PLK1 (P53350 whole entry): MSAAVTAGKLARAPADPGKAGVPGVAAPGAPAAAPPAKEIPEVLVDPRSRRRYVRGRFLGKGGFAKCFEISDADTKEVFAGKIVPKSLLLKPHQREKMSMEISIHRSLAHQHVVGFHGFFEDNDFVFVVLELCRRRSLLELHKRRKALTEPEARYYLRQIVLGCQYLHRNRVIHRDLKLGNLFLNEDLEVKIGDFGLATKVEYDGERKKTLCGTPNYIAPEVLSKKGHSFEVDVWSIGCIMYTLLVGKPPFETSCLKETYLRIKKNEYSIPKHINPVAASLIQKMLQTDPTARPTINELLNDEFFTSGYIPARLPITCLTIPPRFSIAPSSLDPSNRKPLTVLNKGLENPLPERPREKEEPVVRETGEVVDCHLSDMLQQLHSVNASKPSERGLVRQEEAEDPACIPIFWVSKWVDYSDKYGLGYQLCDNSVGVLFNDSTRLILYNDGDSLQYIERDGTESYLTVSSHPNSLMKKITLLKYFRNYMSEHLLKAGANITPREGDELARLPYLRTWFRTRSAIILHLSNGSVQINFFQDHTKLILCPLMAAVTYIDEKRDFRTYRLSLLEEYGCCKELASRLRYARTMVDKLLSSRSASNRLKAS

As for `c1ccc(C2CC3CC4(CCCC4)N2O3)cc1` (stereo not given), the values for the EC50 in assay [1], in assay [2] and in assay [3] were > 54.7 µM (inactive), > 54.7 µM (inactive) and > 55.9 µM (inactive), respectively. Also, the IC50 in [4] was > 89.2 µM (inactive).
In the case of `CN(C)CCCN(C(=O)COc1ccc(Cl)cc1)c1nc2ccc(F)cc2s1`, the EC50 in assay [1] was > 54.7 µM (inactive); in assay [2], > 54.7 µM (inactive); in [3], > 55.9 µM (inactive). In addition, the IC50 in assay [4] is > 29.7 µM (inactive).
Take `Cn1ncc2c1CCCC2=O`: the Ki is 15.8 µM (active) in assay [5]; > 25.1 µM (inactive) in assay [6]; > 25.1 µM (inactive) in [7]; > 25.1 µM (inactive) in assay [8]; > 20 µM (inactive) in assay [9]; > 25.1 µM (inactive) in [10]. Also, the Ki in [11], in assay [12], in [13], in assay [14], in [15] and in [16] was > 20 µM (inactive) throughout. Moreover, the Ki in assay [17] was > 25.1 µM (inactive); in assay [18], 10 µM (active); in [19], > 20 µM (inactive); in assay [20], 2 µM (active); in assay [21], > 20 µM (inactive).

The term EC50 denotes the concentration needed to bring the measured effect to its halfway point. In general, IC50 refers to the concentration that gives 50% inhibition. As usually defined, the Ki is the dissociation constant of the complex between target and ligand, obtained from inhibition or displacement.

These data come from ChEMBL document CHEMBL1201862, “PubChem BioAssay data set” (2004).
